# From patent US7687473B2, “5-amino-4-imidazolecarboxamide riboside and its nucleobase as potentiators of antifolate transport and metabolism” (Health Research, Inc., priority 2005, dated 2010)
# Read-outs that look alike come from different tables or passages of the source.
# What was measured:
# [1] = target: T1, reduced folate carrier (RFC) (Homo sapiens, UniProt P41440); test: Inhibition of initial velocity of [3H]MTX influx by competitors; assay type: cell-based; conditions: for IC50: IC50, inhibition of initial velocity of [3H]MTX influx
# T1 construct: endogenous in cells; host or cells: CCRF-CEM (parental)
# T1 sequence (P41440 1-591): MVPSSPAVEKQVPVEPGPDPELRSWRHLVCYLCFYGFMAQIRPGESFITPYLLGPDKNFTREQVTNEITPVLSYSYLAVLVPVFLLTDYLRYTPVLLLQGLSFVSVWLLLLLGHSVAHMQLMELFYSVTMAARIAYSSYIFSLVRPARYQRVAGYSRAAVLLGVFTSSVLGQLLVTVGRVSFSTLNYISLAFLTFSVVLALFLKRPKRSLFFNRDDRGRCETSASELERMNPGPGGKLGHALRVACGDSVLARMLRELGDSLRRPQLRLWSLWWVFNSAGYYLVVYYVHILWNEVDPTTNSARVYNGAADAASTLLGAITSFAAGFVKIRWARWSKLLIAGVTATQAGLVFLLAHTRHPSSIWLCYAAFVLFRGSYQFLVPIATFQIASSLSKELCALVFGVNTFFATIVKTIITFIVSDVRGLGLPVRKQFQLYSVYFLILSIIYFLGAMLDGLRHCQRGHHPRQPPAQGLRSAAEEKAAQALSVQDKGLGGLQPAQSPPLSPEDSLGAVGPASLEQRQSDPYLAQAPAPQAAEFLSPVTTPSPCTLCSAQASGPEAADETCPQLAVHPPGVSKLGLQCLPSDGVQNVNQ
# Description: Duplicate samples were removed at 5 min and processed as described above.
# Inhibition of the vi of uptake was measured after pre-incubation of CCRF-CEM cells either with TMTX alone (measuring inhibition at the RFC) or with TMTX+Z (measuring inhibition during Z potentiation). […] All studies were carried out in standard transport medium. Inhibitory potency was measured in two series of experiments and AMT was included in each series as an internal control. Values are average±range of two determinations. […] Values are average±range for duplicate determinations.
# CCRF-CEM cells [2] = test: [3H]MTX uptake (initial velocity and 30 min accumulation) in CCRF-CEM cells; assay type: cell-based, human; conditions: for Potentiation of [3H]MTX uptake at 30 min: compound at 0.5 mM, 10 min pre-incubation with TMTX
# Description: Quantitation of folate and antifolate uptake. The method is essentially as follows. Briefly, logarithmically growing (3-5×10^5/ml) CCRF-CEM cells were harvested at room temperature by centrifugation at 1000×g for 5 min. After washing with the appropriate medium, cells were suspended at ≈2×10^7 cells/ml for use in transport studies. […] Anion-free MHS contains 250 mM sucrose and 20 mM HEPES, titrated to pH 7.4 with MgO. […] Uptake was measured as a function of time for 30 min (for rate and extent measurements) or over 5 min (studies requiring initial velocities). […] Uptake was terminated by diluting 100 μL samples into 1 ml of iced 0.9% NaCl. […] The supernatant was aspirated. The cell pellet was washed once with 1 ml iced 0.9% NaCl and centrifuged as above. The washed pellet was solubilized in 1 ml of 0.3% Triton X-100 by incubation for 60 min at 37° C. The solubilized pellet was transferred to a scintillation vial, 10 ml of Liquiscint (National Diagnostics, Atlanta, Ga.) was added and radioactivity was quantitated in a Beckman Model LS6500 liquid scintillation counter. Separate samples at the longest incubation time used in a particular experiment were harvested for HPLC analysis of intracellular contents as above, except that after the second wash the pellets were extracted with 1 ml boiling 0.1 M Na-phosphate, pH 5.5. The extract was clarified by centrifugation and the supernatant was filtered through an MPS-1 filter unit (Amicon) prior to HPLC analysis.
# CCRF-CEM cells [3] = test: cells; assay type: cell-based, human; conditions: for EC50: Homo sapiens, CCRF-CEM, read-out: EC50
# Description: Inhibition of growth of human cell lines in vitro. Inhibition of growth of CCRF-CEM in continuous and intermittent drug exposures was measured. EC50 values were determined from plots of percent control growth versus the logarithm of drug concentration.
# […]; n=2). […]; n=2). Values presented are average±S.D. for n>2 and average±range for n=2. […] […]; EC50 data may therefore underestimate the biological potency.
# CCRF-CEM cells [4] = test: Accumulation of DDATHF polyglutamates in CCRF-CEM cells; assay type: cell-based, human; conditions: for DDATHF-Glun, N = 1 / DDATHF-Glun, N = 2 / DDATHF-Glun, N = 3 / DDATHF-Glun, N = 4 / DDATHF-Glun, N = 5 / DDATHF-Glun, N = 6 / DDATHF-Glun, Total / DDATHF-Glun, Total N ≧ 3: 4 hr, 1 μM [3H]DDATHF
# Description: At the end of the exposure cells were rapidly chilled to 4 degrees C., harvested by centrifugation at 1000×g for 5 min, washed twice with iced 0.9% NaCl by centrifugation in the same manner. One mL of boiling 50 mM Na-phosphate, pH 5.5 was added, the pellet was triturated and the sample boiled for 5 min. The sample was rapidly cooled to 4 degrees C. Debris was removed by centrifugation as above. The supernatant was further clarified by centrifugation through an Amicon MPS-1 filter unit. […] A suitable volume was injected onto a reversed-phase HPLC column (C18) and eluted with a gradient of from 4-14% acetonitrile over about 43 min. One min fractions were collected and, after addition of 10 ml scintillation fluid, were quantitated by liquid scintillation counting. […]
# [5] = +TMTX + Z, 10 min pre-incubation with 1 μM TMTX and 0.5 mM Z (Z potentiated influx)
# [6] = +TMTX, 10 min pre-incubation with 1 μM TMTX alone (inhibition of the RFC)
# [7] = 1 mM, 30 min incubation, TMTX present, Z absent
structure (smiles),measurement,setting,value
"Nc1nc2c(c(=O)[nH]1)N(C=O)[C@H](CNc1ccc(C(=O)N[C@@H](CCC(=O)O)C(=O)O)cc1)CN2 [(6R,S)-LV, [6R,S]-5-formyltetrahydrofolate]",IC50,[1]; [5],2.7 µM
same,IC50,[1]; [6],2.6 ± 0.1 µM
"NC(=O)NC1NC(=O)NC1=O (centres unmarked) [ALN, allantoin]",Potentiation of [3H]MTX uptake,CCRF-CEM cells [2]; 500 μM,does not potentiate
same,Inhibition of potentiation by 500 μM Z,CCRF-CEM cells [2]; up to 100 μM,does not inhibit potentiation
"Nc1nc(N)c2nc(CNc3ccc(C(=O)N[C@@H](CCC(=O)O)C(=O)O)cc3)cnc2n1 [AMT, 4-amino-pteroylglutamic acid]",Increase of growth inhibitory potency (EC50) by Z,"CCRF-CEM cells [3]; 0-24 hr pulse of 120 hr, 100 μM Z",≈ 2 fold
same,EC50,"CCRF-CEM cells [3]; drug exposure 0-24/120 hr, [Z] 0 μM",0.0061 ± 0.0013 µM
same,EC50,"CCRF-CEM cells [3]; drug exposure 0-24/120 hr, [Z] 100 μM",0.0037 ± 0.0003 µM
"Nc1ncnc2c1ncn2[C@@H]1O[C@H](CO)[C@@H](O)[C@H]1O [Adenosine, adenosine]",Ability to potentiate [3H]MTX uptake,CCRF-CEM cells [2],unable to potentiate
same,Potentiation of [3H]MTX uptake at 30 min,CCRF-CEM cells [2],do not potentiate
"Cc1nc2ccc3ccc(CNc4ccc5c(c4)CN([C@@H](CCC(=O)O)C(=O)O)C5=O)cc3c2c(=O)[nH]1 [BW1843U89, (S)-2-(5-(((1,2-dihydro-3-methyl-1-oxobenzo(F)quinazolin-9-yl)methyl)-amino)-1-oxo-2-isoindolinyl)glutaric acid]",IC50,[1]; [5],1.3 ± 0.4 µM
same,IC50,[1]; [6],1 ± 0.1 µM
"Nc1nc2c(c(=O)[nH]1)CC(CCc1ccc(C(=O)N[C@@H](CCC(=O)O)C(=O)O)cc1)CN2 (some centres unmarked) [DDATHF, 5,10-dideazatetrahydrofolate]",Effect of Z on DDATHF uptake,CCRF-CEM cells [4]; 30 min incubation,no effect of Z was observed
same,Increase of total drug accumulation by Z,CCRF-CEM cells [4]; 4 hr incubation with 1 μM [3H]DDATHF,11%
same,"DDATHF-Glun, N = 1",CCRF-CEM cells [4]; +Z,17.5 ± 1.3 pmol/10^7 cells
same,"DDATHF-Glun, N = 2",CCRF-CEM cells [4]; +Z,5.9 ± 0.1 pmol/10^7 cells
same,"DDATHF-Glun, N = 3",CCRF-CEM cells [4]; +Z,10.1 ± 0.1 pmol/10^7 cells
same,"DDATHF-Glun, N = 4",CCRF-CEM cells [4]; +Z,15.2 ± 0.8 pmol/10^7 cells
same,"DDATHF-Glun, N = 5",CCRF-CEM cells [4]; +Z,29.8 ± 0.3 pmol/10^7 cells
same,"DDATHF-Glun, N = 6",CCRF-CEM cells [4]; +Z,33.0 ± 2.3 pmol/10^7 cells
same,"DDATHF-Glun, Total",CCRF-CEM cells [4]; +Z,111.3 pmol/10^7 cells
same,"DDATHF-Glun, Total N ≧ 3",CCRF-CEM cells [4]; +Z,88.0 pmol/10^7 cells
same,"DDATHF-Glun, N = 1",CCRF-CEM cells [4]; −Z,14.8 ± 0.8 pmol/10^7 cells
same,"DDATHF-Glun, N = 2",CCRF-CEM cells [4]; −Z,4.9 ± 0.8 pmol/10^7 cells
same,"DDATHF-Glun, N = 3",CCRF-CEM cells [4]; −Z,9.2 ± 0.9 pmol/10^7 cells
same,"DDATHF-Glun, N = 4",CCRF-CEM cells [4]; −Z,13.3 ± 2.1 pmol/10^7 cells
same,"DDATHF-Glun, N = 5",CCRF-CEM cells [4]; −Z,28.1 ± 2.1 pmol/10^7 cells
same,"DDATHF-Glun, N = 6",CCRF-CEM cells [4]; −Z,30.5 ± 0.9 pmol/10^7 cells
same,"DDATHF-Glun, Total",CCRF-CEM cells [4]; −Z,100.8 pmol/10^7 cells
same,"DDATHF-Glun, Total N ≧ 3",CCRF-CEM cells [4]; −Z,81.1 pmol/10^7 cells
"Nc1nc2ncc(CNc3ccc(C(=O)N[C@@H](CCC(=O)O)C(=O)O)cc3)nc2c(=O)[nH]1 [PteGlu, folic acid]",IC50,[1]; [5],18.5 ± 1.1 µM
same,IC50,[1]; [6],18.6 ± 0.6 µM
same,Plateau in inhibition of [3H]MTX influx,"[1]; observed ±Z, data not shown",60-70%
"NC(=O)c1nc[nH]c1N [Z-base, 5-amino-4-imidazolecarboxamide]",Potentiation of [3H]MTX uptake at 30 min,CCRF-CEM cells [2],potentiates
Nc1ncnc2nc[nH]c12 [adenine],Potentiation of [3H]MTX uptake at 30 min,CCRF-CEM cells [2],do not potentiate
Nc1ncnc2c1ncn2[C@H]1C[C@H](O)[C@@H](CO)O1 [deoxyadenosine],Potentiation of [3H]MTX uptake at 30 min,CCRF-CEM cells [2],do not potentiate
Nc1nc2c(ncn2[C@H]2C[C@H](O)[C@@H](CO)O2)c(=O)[nH]1 [deoxyguanosine],Potentiation of [3H]MTX uptake at 30 min,CCRF-CEM cells [2],do not potentiate
OC[C@H]1O[C@@H](n2cnc3c(O)ncnc32)C[C@@H]1O [deoxyinosine],Potentiation of [3H]MTX uptake at 30 min,CCRF-CEM cells [2],do not potentiate
CCCC(=O)Nc1ncnc2c1ncn2[C@@H]1O[C@@H]2COP(=O)(O)O[C@H]2[C@H]1OC(=O)CCC [dibutyryl-cAMP],30 min accumulation of [3H]MTX compared to TMTX alone,CCRF-CEM cells [2]; [7],lower 30 min accumulation
same,Initial velocity of [3H]MTX uptake compared to TMTX alone,CCRF-CEM cells [2]; [7],reduced initial velocity
O=CO [formate],Ability to potentiate [3H]MTX uptake,CCRF-CEM cells [2],unable to potentiate
NC(=O)CC[C@H](N)C(=O)O [glutamine],Ability to potentiate [3H]MTX uptake,CCRF-CEM cells [2],unable to potentiate
Nc1nc2nc[nH]c2c(=O)[nH]1 [guanine],Potentiation of [3H]MTX uptake at 30 min,CCRF-CEM cells [2],do not potentiate
Nc1nc2c(ncn2[C@@H]2O[C@H](CO)[C@@H](O)[C@H]2O)c(=O)[nH]1 [guanosine],Ability to potentiate [3H]MTX uptake,CCRF-CEM cells [2],unable to potentiate
same,Potentiation of [3H]MTX uptake at 30 min,CCRF-CEM cells [2],do not potentiate
O=c1[nH]cnc2nc[nH]c12 [hypoxanthine],Potentiation of [3H]MTX uptake at 30 min,CCRF-CEM cells [2],do not potentiate
OC[C@H]1O[C@@H](n2cnc3c(O)ncnc32)[C@H](O)[C@@H]1O [inosine],Ability to potentiate [3H]MTX uptake,CCRF-CEM cells [2],unable to potentiate
same,Potentiation of [3H]MTX uptake at 30 min,CCRF-CEM cells [2],do not potentiate
CSCC[C@H](N)C(=O)O [methionine],Ability to potentiate [3H]MTX uptake,CCRF-CEM cells [2],unable to potentiate
Nc1nc2[nH]cc(CCc3ccc(C(=O)N[C@@H](CCC(=O)O)C(=O)O)cc3)c2c(=O)[nH]1 [pemetrexed],EC50,"CCRF-CEM cells [3]; 0-6 hr pulse exposure out of 120 hr, 50 μM Z",0.32 ± 0.03 µM
same,EC50,"CCRF-CEM cells [3]; 0-6 hr pulse exposure out of 120 hr, absence of Z",0.3 ± 0.01 µM
same,EC50,"CCRF-CEM cells [3]; 0-16 hr pulse exposure out of 120 hr, 50 μM Z",0.103 ± 0.0175 µM
same,EC50,"CCRF-CEM cells [3]; 0-16 hr pulse exposure out of 120 hr, absence of Z",0.0855 ± 0.0065 µM
same,EC50,"CCRF-CEM cells [3]; 120 h, 120 hr continuous exposure, 50 μM Z",0.0198 ± 0.0033 µM
same,EC50,"CCRF-CEM cells [3]; 120 h, 120 hr continuous exposure, absence of Z",0.0183 ± 0.0034 µM
NC(=O)c1[nH]nc([C@@H]2O[C@H](CO)[C@@H](O)[C@H]2O)c1O [pyrazofurin],Ability to potentiate [3H]MTX uptake,CCRF-CEM cells [2],unable to potentiate
Cc1cn([C@H]2C[C@H](O)[C@@H](CO)O2)c(=O)[nH]c1=O [thymidine],Potentiation of [3H]MTX uptake at 30 min,CCRF-CEM cells [2],do not potentiate
